Measurements from US8921426B2, “Cationic bis-urea compounds as effective antimicrobial agents” (International Business Machines Corporation, priority 2012, dated 2014).
≈ marks a conversion by molar mass, not a printed value. Entries after “also recorded” stand apart in the source; their conditions may differ. Read-outs that look alike come from different tables or passages of the source.

Experiments:
[1] = system: Candida albicans (C. albicans) (ATCC No. 10231); assay: MIC, broth microdilution, C. albicans; type: cell-based; settings: for MIC: Candida albicans, read-out: MIC C. albicans
Description: (§1) The minimum inhibitory concentration (MIC) of each of the cationic compounds was measured using a broth microdilution method. The cationic compound were dissolved in DI water at a concentration of 2500 mg/L. The samples were further diluted to 31.25, 62.5, 125, 250.0, 500.0 and 1000.0 mg/L using TSB or YMB. The B. subtilis cells were grown in TSB overnight in an incubator at 37° C. The C. albicans cells were grown in YMB at room temperature. The optical density of the bacterial solution was adjusted to OD600 nm=0.07 to 0.08 by the addition of TSB or YMB. This bacterial solution was further diluted 1000 times. Cationic compound solution (100 microliters) was transferred to each well of 96 well plates (NUNC), followed by the addition of 100 microliters of the bacterial solution. TSB or YMB was used as control. B. subtilis cells were incubated at 37° C. overnight in TSB. C. albicans cells were cultured in YMB at room temperature. C. neoformans were inoculated in MHB broth and grew overnight at 37° C. with shaking at 250 rpm. The optical density readings of bacterial solutions were monitored by measuring OD600nm in predetermined times (0 hours and 18 hours for B. subtilis while 0 hours and 24 hours for C. albicans). The assay was performed in four replicates for each sample and the experiments were repeated at least three times.

B. subtilis = assay: Killing efficiency, spread plate method, B. subtilis; type: cell-based, Bacillus subtilis; settings: 18 hour treatment
Description: (§2) Antimicrobial activities of cationic compounds were also tested through a spread plate method. B. subtilis and C. albicans were treated at half MIC, MIC and 2×MIC concentrations of cationic compounds. At predetermined time (18 hours for B. subtilis and 24 hours for C. albicans and C. neoformans), microbial suspensions were withdrawn, diluted sequentially, and then plated on 1.5% lysogeny broth (LB) agar plates. The plates were incubated for 24 hours at 37° C. (48 hours at room temperature for C. albicans). Microbial colonies were formed and counted. The results are expressed as % kill=(cell count of control−survivor count of samples)/cell count of control×100. The experiments were performed in triplicate and were repeated three times.

[2] = system: Bacillus subtilis (B. subtilis) (ATCC No. 23857); assay: MIC, broth microdilution, B. subtilis; type: cell-based; settings: ATCC23857, TSB, 37° C., 18 hours
Description: as §1

C. albicans = assay: Killing efficiency, spread plate method, C. albicans; type: cell-based, Candida albicans; settings: for killing of C. albicans cells: 24 hour treatment
Description: as §2

rat red blood cells = assay: Hemolysis of rat red blood cells; type: cell-based; settings: one hour at 37° C.
Description: Fresh rat blood cells were washed with PBS three times. 100 microliters of red blood cell suspension in PBS (4% in volume) was introduced to each well of a 96 well-plate and 100 microliters of cationic compound solution was then added to the well. PBS and TRITON X-100 (0.2%) were used as control. The plates were incubated for one hour at 37° C. The 96 well plates were centrifuged at 4000 rpm for 5 minutes. Aliquots (100 microliters) of the supernatant were transferred to a new 96 well plate. Hemoglobin release was measured at 576 nm using a microplate reader (TECAN). The red blood cells in PBS were used as a negative control. Absorbance of wells with red cells lysed with 0.2% TRITON X-100 was taken as 100% hemolysis. Percentage of hemolysis was calculated using the following formula (OD576nm=optical density at 576 nm): Hemolysis (%)=[(OD576nm of the sample−OD576nm of PBS)/(OD576nm of 0.2% TRITON X-100−OD576nm of PBS)×100. The data were expressed as mean and standard deviation of four replicates and the tests were repeated three times.

[3] = Zeta potential (Zetasizer); type: physicochemical; settings: cationic bis-urea compounds, 1000 mg/L; method names PBS pH 7.4 and DI water, table does not say which
Description: The zeta potential of the cationic compounds in phosphate-buffered saline (PBS, pH 7.4) and deionized (DI) water was measured by Zetasizer 3000 HAS (Malvern Instrument Ltd., Malvern, UK) equipped with a He—Ne laser beam at […] (scattering angle: 90°). The concentration of cationic compounds was 1000 mg/L. Each measurement was repeated 5 times. An average value was obtained from the five measurements.

[4] = Critical micelle concentration (CMC) by intensity of scattered light; type: physicochemical; settings: cationic bis-urea compounds; stock diluted using DI water
Description: The intensity of scattered light (in kilo counts per second) was recorded as a function of cationic compounds concentration ranging from 0.0 to 250.0 mg/L. A stock polymer solution was prepared with a concentration of 1000.0 mg/L, and diluted using DI water to various concentrations. The intensity of scattered light was plotted against polymer concentration. The CMC value was taken from the intersection of the tangent to the curve at the inflection with the horizontal tangent through the points at low concentrations.

[5] = system: primary human dermal fibroblasts; assay: MTT cytotoxicity assay; type: cell-based; settings: 24 hours at 37° C.
Description: The cytotoxicity tests of the cationic bis-urea compounds were performed in primary human fibroblasts using MTT assay. The cells were cultured in DMEM supplemented with 10% FBS, 5% penicillin, 2 mM L-glutamine (Sigma) and incubated at 37° C., 5% CO2. The cells were seeded onto 96-well plates at a density of 10,000 cells per well and incubated for one day. Cationic compounds were diluted with the growth medium to give final concentrations of 31.25, 62.5, 125, 250.0, 500.0, 1000.0 and 2500.0 mg/L. The media were replaced with 100 microliters of the pre-prepared samples. The plates were then returned to the incubator and maintained in 5% CO2 at 37° C. for 24 hours. Fresh growth media (100 microliters) containing 10% MTT solution (5 mg/mL) were used to replace the mixture in each well after 24 hours. The plates were then returned to the incubator and maintained in 5% CO2 at 37° C. for a further 4 hours. The growth medium and excess MTT in each well were then removed. DMSO (150 microliters) was then added to each well to dissolve the internalized purple formazan crystals. An aliquot of 100 microliters was taken from each well and transferred to a fresh 96-well plate. Each sample was tested in eight replicates per plate. The plates were then assayed at 550 nm and 690 nm. The absorbance readings of the formazan crystals were taken to be the absorbance at 550 nm minus the absorbance at 690 nm. The results were expressed as a percentage of the absorbance of the blank control.

[6] = system: Cryptococcus neoformans (C. neoformans); assay: MIC, broth microdilution, C. neoformans; type: cell-based; settings: for MIC: Cryptococcus neoformans, read-out: MIC C. neoformans
Description: as §1

C. neoformans cells = assay: TEM of C. neoformans cells before and after treatment; type: cell-based, Cryptococcus neoformans; settings: 8 hours, FIG. 7B
Description: The morphology of the C. neoformans before and after treatment with cationic compound CBU2 was observed under a JEM-1230 TEM (JEOL, Japan) using an acceleration voltage of 80 keV. The C. neoformans (1.5 mL) was incubated with 0.5 mL of CBU2 solution for 8 hours. The solution was then centrifuged at 4000 rpm for 10 minutes, and the supernatant removed. The […] was washed with PBS twice and then fixed in formalin solution containing 2.5% glutaraldehyde overnight. The sample was then washed by PBS three times (15 minutes each) and then post fixed with 1% OsO4 in phosphate buffer (pH 7.0) for one hour. The fixed samples were washed in phosphate buffer three times (15 minutes each), followed by dehydration in a graded ethanol series. The samples were incubated with the mixtures of acetone and Spun resin (1:1 in volume) for one hour at room temperature, and then transferred to 1:3 mixture of acetone and Spun resin for 3 hours, and to Spun resin overnight. Ultrathin sections (70-90 nm) were cut using a Reichert-Jung Ultracut E ultramicrotome, and post-stained with uranyl acetate and lead citrate for 15 minutes each prior to TEM observations. Spun resin can be prepared from a kit by combining 3,4 epoxy cyclohexyl methyl 3,4 epoxy cyclohexyl carboxylate (ERL-4221 resin from Polysciences) (10.0 g), nonenylsuccinic anhydride (26.0 g), and dimethylaminoethanol (0.4 g).

[7] = ATCC10231, YMB, room temperature, 24 hours
[8] = 24 hours, 1.0 and 2.0 times the MIC (FIG. 4A)
[9] = up to a concentration of 1000 mg/L

Row | SMILES | MIC [1, 7] [µg/mL] | killing of B. subtilis cells (B. subtilis; about 500 mg/L) [%] | MIC [2] [µg/mL] | killing of C. albicans cells (C. albicans; about 500 mg/L) [%] | HC50 (concentration that induces 50% hemolysis of rat red blood cells) (rat red blood cells) | Zeta Potential [3] [mV] | CMC [4] [mg/L] | cell viability of primary human fibroblasts ([5]; up to a concentration of 250 mg/L) | activity against C. albicans (in words) [1] | killing of B. subtilis cells (B. subtilis; about 125 mg/L) [%] | killing efficiency against C. albicans (C. albicans; 31.2 mg/L, by 1 hour of incubation (FIG. 5)) [%] | killing efficiency against C. albicans (C. albicans; [8]) [%] | killing of C. albicans cells (C. albicans; about 31.2 mg/L) [%] | activity against C. neoformans (in words) [6] | MIC ([6]; MHB broth, 37° C.) [µg/mL] | cell membrane morphology after treatment (TEM) (C. neoformans cells) | killing of C. albicans cells (C. albicans; about 125 mg/L) [%] | cell viability of primary human fibroblasts [5, 9] | MIC ([1]; ATCC10231, 24 h) [µg/mL] | MIC [6] [µg/mL]
1 | C[N+](C)(C)CCCNC(=O)Nc1ccc(CNC(=O)c2ccc(C(=O)NCc3ccc(NC(=O)NCCC[N+](C)(C)C)cc3)cc2)cc1.[I-].[I-] [CBU1] | 500 | 100 | 500 | 99 | >>2500 mg/L | 47.0 | 170.0 | About 60% | – | – | – | – | – | – | – | – | – | – | – | –
2 | NCCCCNC(=O)Nc1ccc(CNC(=O)c2ccc(C(=O)NCc3ccc(NC(=O)NCCCCN)cc3)cc2)cc1 [CBU2] | 31.2 (≈ 51.8 µM) | – | 125 (≈ 207 µM) | – | >>1000 mg/L | 36.7 | 20.0 | – | highly active; also recorded: more active | 100 | 100 | 100 | 100 | highly active | 62.5 (≈ 104 µM) | ruptured and show loss of intracellular material | – | – | – | –
3 | C[N+](C)(C)CCCNC(=O)Nc1ccc(NC(=O)c2ccc(C(=O)Nc3ccc(NC(=O)NCCC[N+](C)(C)C)cc3)cc2)cc1.[I-].[I-] [CBU3] | 250 | – | 125 | – | >>2500 mg/L | 32.8 | 110.0 | – | – | – | – | 100 | – | – | – | – | 99.9 | More than 80% | – | –
4 | NCCNC(=O)Nc1ccc(CNC(=O)c2ccc(C(=O)NCc3ccc(NC(=O)NCCN)cc3)cc2)cc1 [CBU5] | – | – | – | – | >>1000 mg/L | 32.2 | 100.00 | – | highly active; also recorded: more active | – | – | – | – | highly active | – | – | – | About 80% | 62.5 (≈ 114 µM) | 125 (≈ 229 µM)
5 | NCCCCCCNC(=O)Nc1ccc(CNC(=O)c2ccc(C(=O)NCc3ccc(NC(=O)NCCCCCCN)cc3)cc2)cc1 [CBU6] | – | – | – | – | >>1000 mg/L | 35.3 | 15.0 | – | highly active; also recorded: more active | – | – | – | – | highly active | – | – | – | About 80% | 31.2 (≈ 47.4 µM) | 62.5 (≈ 94.9 µM)
6 | NCc1ccc(CNC(=O)Nc2ccc(CNC(=O)c3ccc(C(=O)NCc4ccc(NC(=O)NCc5ccc(CN)cc5)cc4)cc3)cc2)cc1 [CBU7] | – | – | – | – | >>1000 mg/L | 45.1 | 12.0 | – | highly active; also recorded: more active | – | – | – | – | highly active | – | – | – | – | 31.2 (≈ 44.6 µM) | 31.2 (≈ 44.6 µM)
